{"source": "patent US20210196838A1", "about": "“COMPOUNDS AND COMPOSITIONS FOR POTENTIATION OF TLR AGONISTS” (priority 2018, published 2021)", "key": {"[1]": {"test_system": "vesicular stomatitis virus-green fluorescent protein (VSV-GFP)", "type": "cell-based"}, "viral infection": {"test_system": "viral infection", "details": "free agonist dosing provided by Zhao et. al, 2012; cited from earlier work"}, "[2]": {"test_system": "rainbow trout gut cells (RT-gut)", "test": "Uptake of fluorescently labelled poly IC in RT-gut cells", "type": "cell-based", "details": "1 ug/ml, 20 degree treatment, 4 hours"}}}
{"substance": "polyinosinic:polycytidylic acid [poly IC]", "values": [{"measurement": "equivalent dose in an antiviral assay", "setting": "[1]", "value": 1000, "unit": "µg/mL"}, {"measurement": "dose sufficient to protect mice from viral infection", "setting": "viral infection", "value": 20, "unit": "µg"}, {"measurement": "intracellular fluorescence", "setting": "[2]", "value": "no fluorescence was detected"}]}
